Holding throughout (test): inhibition of tumour cell growth, NCI panel, 48 h
Assay [1] concerns RXF 393.
Assay [2] deals with A549.
Assay [3] concerns DU-145.
For assay [4], the system named is HL-60.
The subject of assay [5] is T47D.
The subject of assay [6] is Hs-578T.
Assay [7] has as its system SN12C.
Assay [8] deals with MDA-N.
Assay [9] has as its system SR.
In assay [10] the test system is SK-MEL-5.
Assay [11] concerns KM12.
Assay [12] deals with HT-29.
Assay [13] relates to NCI/ADR-RES.
In assay [14] the test system is SNB-19.
Assay [15] has as its system OVCAR-5.
The test system of assay [16] is SK-MEL-28.
Assay [17] has as its system K562.
Assay [18] deals with OVCAR-4.

Molecules are shown by their SMILES.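 96-well plates; 48 h exposure; 5 concentrations. Endpoints by linear interpolation between flanking doses. Not reached: highest tested concentration assigned. Here, GI50 denotes the concentration required for 50% inhibition of growth.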 Active and inactive are the calls of the source. Rule as the data show it: active = GI50 up to about 1.1 µM and inactive = higher. Where only a bound is given, the exact number is not on record here.

As for `Cc1ccc2nc(SCC(=O)N/N=C3\C(=O)Nc4ccccc43)n(-c3ccccc3)c(=O)c2c1`, the GI50 is 14.1 µM (inactive) in assay [1]; 15.2 µM (inactive) in assay [2]; 13.4 µM (inactive) in assay [3]; 25.5 µM (inactive) in assay [4]; 15.5 µM (inactive) in assay [5]; 17.8 µM (inactive) in assay [6]. The GI50 in assay [7] was 15.7 µM (inactive); in [8], 19 µM (inactive); in assay [9], 19.5 µM (inactive); in assay [10], 15.7 µM (inactive); in [11] it was 13.6 µM (inactive); in [12], 19.4 µM (inactive). Moreover, the GI50 was 13.3 µM (inactive) in assay [13]; 17.5 µM (inactive) in assay [14]; 15.8 µM (inactive) in assay [15]; 15.4 µM (inactive) in assay [16]; 23.7 µM (inactive) in [17]; 13.2 µM (inactive) in [18].

`CN(C)CCCNC(=O)c1cn2c(ccc3sc4ccccc4c(=O)c32)n1`: the GI50 was 5.94 µM (inactive) in assay [1]; 9.14 µM (inactive) in assay [2]; 12.3 µM (inactive) in assay [3]; 3.6 µM (inactive) in assay [4]; 18.3 µM (inactive) in assay [5]; 15.7 µM (inactive) in assay [6]. For the same compound, the GI50 was 4.56 µM (inactive) in assay [7]; 5.09 µM (inactive) in assay [8]; 1.95 µM (inactive) in assay [9]; 1.55 µM (inactive) in assay [10]; 12 µM (inactive) in assay [11]; 1.3 µM (inactive) in [12]. Moreover, the GI50 in [13] was 2.95 µM (inactive); in assay [14] it was 15.1 µM (inactive); in assay [15] it was 10.6 µM (inactive); in assay [16] it was 5.46 µM (inactive); in [17], 1.79 µM (inactive); in assay [18] it was 13.6 µM (inactive).

On to `COc1cc([N+](=O)[O-])c(S(=O)(=O)O)cc1-n1nc(-c2ccccc2)n[n+]1-c1cc(S(=O)(=O)[O-])c([N+](=O)[O-])cc1OC`, for which the GI50 in assay [1], in assay [2], in assay [3], in [4], in assay [5] and in assay [6] was > 100 µM (inactive) in each case. Moreover, the GI50 in [7], in assay [8], in [9], in [10], in assay [11] and in assay [12] was > 100 µM (inactive) each time. Besides, the GI50 in assay [13], in [14], in assay [15], in assay [16], in [17] and in assay [18] was > 100 µM (inactive) throughout.

On to `C=C1c2nc3ccccc3n2C=C(c2ccc(OC)cc2)N1c1ccc(OCCN2CCCCC2)cc1`, for which the GI50 in [1] is 27.6 µM (inactive); in assay [2], 17.6 µM (inactive); in assay [3], 13.1 µM (inactive); in [4], 3.58 µM (inactive); in assay [5], 26.6 µM (inactive); in [6], 11.2 µM (inactive). For the same compound, the GI50 was 27.1 µM (inactive) in assay [7]; 19.7 µM (inactive) in assay [8]; 4.44 µM (inactive) in assay [9]; 7.45 µM (inactive) in assay [10]; 8 µM (inactive) in [11]; 20 µM (inactive) in assay [12]. The GI50 in assay [13] was 4.73 µM (inactive); in assay [14] it was 11.3 µM (inactive); in assay [15], > 74.1 µM (inactive); in assay [16], 31.2 µM (inactive); in [17] it was 4.83 µM (inactive); in assay [18] it was 11.6 µM (inactive).

In the case of `CCOC(=O)c1cc2c([nH]1)c(O)cc1c2ccn1Cc1ccccc1`, the GI50 is 7.8 µM (inactive) in assay [1]; 13.7 µM (inactive) in assay [2]; 17.8 µM (inactive) in [3]; 13 µM (inactive) in assay [4]; 2.85 µM (inactive) in assay [5]; 19.4 µM (inactive) in assay [6]. Also, the GI50 was 20.2 µM (inactive) in [7]; 15.3 µM (inactive) in assay [8]; 1.03 µM (active) in assay [9]; 12.1 µM (inactive) in [10]; 10.3 µM (inactive) in [11]; 16.6 µM (inactive) in [12]. The GI50 in assay [13] is 17.3 µM (inactive); in assay [14] it was 14.2 µM (inactive); in assay [15], 17.7 µM (inactive); in assay [16], 17.5 µM (inactive); in [17], 8.34 µM (inactive); in assay [18] it was 19.9 µM (inactive).

For `CC(=O)NC1=C(OS(=O)(=O)c2ccc(C)cc2)CN(C)C1=O`, the GI50 is 3.3 µM (inactive) in assay [1]; 3.5 µM (inactive) in [2]; 4.2 µM (inactive) in assay [3]; 2.83 µM (inactive) in [4]; 2.12 µM (inactive) in assay [5]; 4.03 µM (inactive) in assay [6]. Besides, the GI50 in assay [7] is 4.37 µM (inactive); in [8] it was 4.56 µM (inactive); in assay [9], 4.6 µM (inactive); in [10], 4.11 µM (inactive); in [11] it was 3.92 µM (inactive); in [12], 4.92 µM (inactive). Besides, the GI50 is 3.91 µM (inactive) in assay [13]; 3.43 µM (inactive) in assay [14]; 16.7 µM (inactive) in [15]; 10.3 µM (inactive) in [16]; 3.61 µM (inactive) in assay [17]; 6.27 µM (inactive) in assay [18].

`O=C1CCSSCCC(=O)NCCN1`: the GI50 in assay [1], in assay [2], in [3], in [4], in assay [5] and in [6] was > 100 µM (inactive) each time. Moreover, the GI50 in assay [7] was > 100 µM (inactive); in [8] it was > 100 µM (inactive); in assay [9] it was 91.2 µM (inactive); in assay [10] it was > 100 µM (inactive); in assay [11] it was > 100 µM (inactive); in [12] it was > 100 µM (inactive). The GI50 in [13], in [14], in [15], in assay [16], in [17] and in [18] was > 100 µM (inactive) throughout.

`COc1ccc(CC2COc3cc(OC)cc(OC)c3C2=O)cc1` (centres undefined): the GI50 in assay [1] is 26.8 µM (inactive); in [2], 33.9 µM (inactive); in assay [3], 21.8 µM (inactive); in assay [4], 13.2 µM (inactive); in [5] it was 16.7 µM (inactive); in assay [6], 17.5 µM (inactive). Moreover, the GI50 is 38.9 µM (inactive) in assay [7]; 3.76 µM (inactive) in assay [8]; 4.57 µM (inactive) in assay [9]; 21.1 µM (inactive) in assay [10]; 8.81 µM (inactive) in assay [11]; 17.6 µM (inactive) in assay [12]. Besides, the GI50 is 8.34 µM (inactive) in assay [13]; 25.2 µM (inactive) in [14]; 24.7 µM (inactive) in [15]; 20.7 µM (inactive) in assay [16]; 31 µM (inactive) in [17]; 17.2 µM (inactive) in [18].

The values above are taken from ChEMBL document CHEMBL1201862, “PubChem BioAssay data set” (2004).
